Test results reported in US7678917B2, “Factor Xa inhibitors” (Hoffman-La Roche Inc., priority 2005, dated 2010).

Each compound was assayed against T1, human factor Xa (Homo sapiens, UniProt P00742) (assay: chromogenic peptide substrate assay, inhibition of factor Xa). Conditions: human factor Xa 3 nM, chromogenic substrate S-2222, pH 7.8, room temperature; apparent Ki from IC50 by Cheng-Prusoff.
T1 construct: purchased Enzyme Research Laboratories
Assay type: biochemical
Procedure: Factor Xa activity was measured spectrophotometrically in microtiter plates in a final volume of 150 μl using the following conditions: Inhibition of human factor Xa (Enzyme Research Laboratories) was tested at an enzyme concentration of 3 nM using the chromogenic substrate S-2222 (Chromogenix AB, Mölndal, Sweden) at […]. The reaction kinetics of the enzyme and the substrate were linear with both time and the enzyme concentration. The inhibitors were dissolved in DMSO and tested at various concentrations up to 100 μM. The inhibitors were diluted using HNPT buffer consisting of HEPES 100 mM, NaCl 140 mM, PEG 6000 0.1% and Tween 80 0.02%, pH 7.8. The cleavage of S-2222 by human factor Xa was followed at 405 nm for 5 minutes at room temperature. The velocity of the reaction was determined by the autoreader from the slope of the linear regression fit to 7 time points (1 minute). The initial velocity for each inhibitor concentration was determined by the slope of at least 4 time points in the linear phase by a linear regression fit […]. Apparent dissociation constants Ki were calculated according to Cheng and Prusoff [Cheng, Y. C.; Prusoff, W. H. Relationship between the inhibition constant (Ki) and the concentration of the inhibitor that causes 50 percent inhibition (IC50) of an enzyme reaction. Biochem. Pharmacol. 1973, 22, 3099-3108.] based on the IC50 and the respective Km, determined previously (Ki=IC50/(1+S/Km)). […] [Lottenberg R, Hall J A, Blinder M, Binder E P, Jackson C M., The action of thrombin on peptide p-nitroanilide substrates. Substrate selectivity and examination of hydrolysis under different reaction conditions. Biochim Biophys Acta. 1983 Feb. 15; 742(3):539-57]. According to Eadie [Eadie G. S. The inhibition of cholinesterase by physostigmine and prostigmine. J. Biol. Chem. 1942, 146, 85-93.], the Km for S-2222 amounted to 613 μM.

T1 sequence (P00742 235-488 limits assumed): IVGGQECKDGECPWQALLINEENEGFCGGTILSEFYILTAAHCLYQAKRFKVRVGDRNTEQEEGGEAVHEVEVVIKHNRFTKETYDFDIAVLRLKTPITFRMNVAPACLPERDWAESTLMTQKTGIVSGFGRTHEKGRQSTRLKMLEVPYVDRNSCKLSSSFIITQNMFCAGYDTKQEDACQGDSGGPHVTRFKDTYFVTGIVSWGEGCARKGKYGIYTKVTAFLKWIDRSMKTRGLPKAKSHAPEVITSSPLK
T1 sequence (P00742 41-179 partner limits assumed): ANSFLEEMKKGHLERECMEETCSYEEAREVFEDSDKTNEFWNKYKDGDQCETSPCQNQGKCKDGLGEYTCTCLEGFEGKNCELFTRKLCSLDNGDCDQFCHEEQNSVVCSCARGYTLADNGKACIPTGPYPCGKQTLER

Point of comparison: `O=C(N[C@H]1C[C@@H](C(=O)Nc2ccc(-n3ccccc3=O)cc2F)C[C@@H]1O)c1ccc(Cl)s1` [Example 1C, 5-chloro-thiophene-2-carboxylic acid {(1S,2S,4R)-4-[2-fluoro-4-(2-oxo-2H-pyridin-1-yl)-phenylcarbamoyl]-2-hydroxy-cyclopentyl}-amide], Ki 0.015 µM. Against it:
- O=C(N[C@H]1C[C@@H](C(=O)Nc2ccc(-n3ccncc3=O)cc2F)C[C@@H]1O)c1ccc(Cl)s1 [Example 5, 5-chloro-thiophene-2-carboxylic acid {(1S,2S,4R)-4-[2-fluoro-4-(2-oxo-2H-pyrazin-1-yl)-phenylcarbamoyl]-2-hydroxy-cyclopentyl}-amide] — within 1.5-fold, 0.018 µM
- O=C(NC[C@H]1C[C@H](C(=O)Nc2ccc(-n3ccccc3=O)cc2F)C[C@@H]1O)c1ccc(Cl)s1 (racemic) [Example 15C] — 2-fold higher, 0.03 µM
- CCO[C@H]1C[C@H](C(=O)Nc2ccc(-n3ccccc3=O)cc2F)C[C@@H]1NC(=O)c1ccc(Cl)s1 [Example 13B, 5-chloro-thiophene-2-carboxylic acid {(1S,2S,4R)-2-ethoxy-4-[2-fluoro-4-(2-oxo-2H-pyridin-1-yl)-phenylcarbamoyl]-cyclopentyl}-amide] — 2.5-fold lower, 0.006 µM
